Laboratory results: patent US20260356830A1, “COMPOUNDS FOR MODULATING RET PROTEIN” (Bristol-Myers Squibb Company, priority 2022, published 2026)

Target: T1, CCDC6-RET (Homo sapiens, UniProt P07949+Q16204+Q96SW2)
T1 construct: CCDC6 (natural N-terminal fusion partner, UniProt Q16204); endogenous in cells; host or cells: TPC-1 (parental, papillary thyroid carcinoma)
Assay: Cellular RET degradation, AlphaLISA, TPC-1 cell line
Format: cell-based
Settings: for Dmax: TPC1, human, 24 h, read-out: Cell Density TPC-1/CCDC6-RET Ymax %; for DC50: read-out: Cell Density TPC-1/CCDC6-RET DC50, half-maximal degradation concentration, TPC-1 (CCDC6-RET), 24 hrs
In short: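 Luminescent AlphaLISA read of RET abundance in lysates after 24 h compound exposure (37 °C, 2% FBS DMEM) of CCDC6-RET-bearing TPC-1 cells. % degradation relative to DMSO (high) and media (low) controls, fitted to 4-parameter logistic curve for DC50 and Ymax.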

T1 sequence (Q16204+P07949 fused): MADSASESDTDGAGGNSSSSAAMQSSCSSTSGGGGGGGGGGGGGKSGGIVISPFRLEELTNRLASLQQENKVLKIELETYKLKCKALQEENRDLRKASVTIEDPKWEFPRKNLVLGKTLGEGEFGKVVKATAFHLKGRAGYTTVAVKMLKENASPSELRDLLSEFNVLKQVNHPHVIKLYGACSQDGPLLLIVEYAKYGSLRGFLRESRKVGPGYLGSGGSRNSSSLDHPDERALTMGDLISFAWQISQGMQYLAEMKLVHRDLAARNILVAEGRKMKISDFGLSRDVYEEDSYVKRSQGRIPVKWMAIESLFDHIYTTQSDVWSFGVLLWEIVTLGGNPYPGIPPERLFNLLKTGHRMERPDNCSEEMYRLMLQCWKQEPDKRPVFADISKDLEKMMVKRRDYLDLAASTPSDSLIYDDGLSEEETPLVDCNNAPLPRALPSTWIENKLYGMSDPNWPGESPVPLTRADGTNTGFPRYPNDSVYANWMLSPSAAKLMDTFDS
T1 sequence (Q96SW2 whole entry, the tested form may be a part): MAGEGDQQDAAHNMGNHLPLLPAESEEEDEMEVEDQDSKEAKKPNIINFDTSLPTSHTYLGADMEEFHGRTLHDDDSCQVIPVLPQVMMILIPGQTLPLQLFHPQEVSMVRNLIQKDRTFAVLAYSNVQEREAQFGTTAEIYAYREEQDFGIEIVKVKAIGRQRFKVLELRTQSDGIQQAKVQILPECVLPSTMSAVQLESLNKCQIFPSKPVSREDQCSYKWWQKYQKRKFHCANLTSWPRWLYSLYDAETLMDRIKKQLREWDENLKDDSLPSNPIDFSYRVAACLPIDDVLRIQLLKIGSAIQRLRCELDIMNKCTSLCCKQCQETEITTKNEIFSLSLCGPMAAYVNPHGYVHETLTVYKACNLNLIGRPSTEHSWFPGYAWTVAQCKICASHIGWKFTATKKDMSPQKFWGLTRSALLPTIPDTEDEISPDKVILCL
T1 sequence (Q16531 whole entry partner, the tested form may be a part): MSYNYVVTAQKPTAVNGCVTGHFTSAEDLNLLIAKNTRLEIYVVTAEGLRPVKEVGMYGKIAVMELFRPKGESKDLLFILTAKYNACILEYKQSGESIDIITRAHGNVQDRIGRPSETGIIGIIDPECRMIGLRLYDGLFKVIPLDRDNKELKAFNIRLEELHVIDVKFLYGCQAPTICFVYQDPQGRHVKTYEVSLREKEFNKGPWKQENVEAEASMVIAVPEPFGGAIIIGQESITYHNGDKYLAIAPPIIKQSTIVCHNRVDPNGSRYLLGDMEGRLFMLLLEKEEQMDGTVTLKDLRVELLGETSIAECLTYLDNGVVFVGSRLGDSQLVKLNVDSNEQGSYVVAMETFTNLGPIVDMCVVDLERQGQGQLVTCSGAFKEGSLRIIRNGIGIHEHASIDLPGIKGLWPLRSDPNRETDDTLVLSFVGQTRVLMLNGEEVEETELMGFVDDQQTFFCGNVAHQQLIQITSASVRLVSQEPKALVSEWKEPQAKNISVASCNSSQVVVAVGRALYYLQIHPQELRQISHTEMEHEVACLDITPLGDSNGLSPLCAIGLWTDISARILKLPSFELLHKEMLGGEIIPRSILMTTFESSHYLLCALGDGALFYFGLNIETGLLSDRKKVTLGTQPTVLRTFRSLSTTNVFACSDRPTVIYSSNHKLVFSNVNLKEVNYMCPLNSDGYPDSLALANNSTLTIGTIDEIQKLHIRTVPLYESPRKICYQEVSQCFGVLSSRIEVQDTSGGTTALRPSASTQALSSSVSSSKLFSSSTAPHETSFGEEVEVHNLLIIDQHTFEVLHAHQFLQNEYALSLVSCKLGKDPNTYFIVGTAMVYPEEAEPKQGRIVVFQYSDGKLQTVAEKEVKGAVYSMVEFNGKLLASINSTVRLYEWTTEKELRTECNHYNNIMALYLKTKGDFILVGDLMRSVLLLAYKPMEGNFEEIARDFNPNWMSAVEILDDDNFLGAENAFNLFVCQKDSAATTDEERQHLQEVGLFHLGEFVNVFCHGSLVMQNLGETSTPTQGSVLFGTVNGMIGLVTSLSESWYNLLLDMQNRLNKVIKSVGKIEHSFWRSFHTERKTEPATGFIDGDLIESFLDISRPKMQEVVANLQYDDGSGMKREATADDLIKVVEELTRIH

Q: Which Dmax does the source give for `CCOc1cc(-c2ccc(N3CCC(CN(C(=O)CCCCCCN4CCN(c5ccc6c(c5)CN(C5CCC(=O)NC5=O)C6=O)CC4)C(C)C)(NC(=O)c4cc(F)ccc4F)CC3)nc2)c2c(C#N)cnn2c1` (stereo not drawn) [Example 165, N-[1-(5-{3-cyano-6-ethoxypyrazolo[1,5-a]pyridin-4-yl}pyridin-2-yl)-4-[(7-{4-[2-(2,6-dioxopiperidin-3-yl)-1-oxo-2,3-dihydro-1H-isoindol-5-yl]piperazin-1-yl}-N-(propan-2-yl)heptanamido)methyl]piperidin-4-yl]-2,5-difluorobenzamide] here?
A: > 90%

Q: And the DC50?
A: < 2 nM

Q: Which Dmax does the source give for `CCOc1cc(-c2ccc(N3CCC(CN(C(=O)CCN4CCN(c5ccc6c(c5)C(=O)N(C5CCC(=O)NC5=O)C6)CC4)C(C)C)(NC(=O)c4cc(F)ccc4F)CC3)nc2)c2c(C#N)cnn2c1` (stereo not drawn) [Example 167, N-[1-(5-{3-cyano-6-ethoxypyrazolo[1,5-a]pyridin-4-yl}pyridin-2-yl)-4-[(3-{4-[2-(2,6-dioxopiperidin-3-yl)-3-oxo-2,3-dihydro-1H-isoindol-5-yl]piperazin-1-yl}-N-(propan-2-yl)propanamido)methyl]piperidin-4-yl]-2,5-difluorobenzamide] here?
A: 60 to 90%

Q: And the DC50?
A: 2 to 10 nM

Q: How did the Dmax turn out when `CCOc1cc(-c2ccc(N3CCC(CN(C(=O)CCCCN4CCN(c5ccc6c(c5)C(=O)N(C5CCC(=O)NC5=O)C6)CC4)C(C)C)(NC(=O)c4cc(F)ccc4F)CC3)nc2)c2c(C#N)cnn2c1` (stereo not drawn) [Example 168, N-[1-(5-{3-cyano-6-ethoxypyrazolo[1,5-a]pyridin-4-yl}pyridin-2-yl)-4-[(5-{4-[2-(2,6-dioxopiperidin-3-yl)-3-oxo-2,3-dihydro-1H-isoindol-5-yl]piperazin-1-yl}-N-(propan-2-yl)pentanamido)methyl]piperidin-4-yl]-2,5-difluorobenzamide] was run?
A: > 90%

Q: What about the DC50 of the same molecule?
A: 2 to 10 nM

Q: With `CCOc1cc(-c2ccc(N3CCC(CN(C(=O)CCCCCCN4CCN(c5ccc6c(c5)C(=O)N(C5CCC(=O)NC5=O)C6)CC4)C(C)C)(NC(=O)c4cc(F)ccc4F)CC3)nc2)c2c(C#N)cnn2c1` (stereo not drawn) [Example 169, N-[1-(5-{3-cyano-6-ethoxypyrazolo[1,5-a]pyridin-4-yl}pyridin-2-yl)-4-[(7-{4-[2-(2,6-dioxopiperidin-3-yl)-3-oxo-2,3-dihydro-1H-isoindol-5-yl]piperazin-1-yl}-N-(propan-2-yl)heptanamido)methyl]piperidin-4-yl]-2,5-difluorobenzamide] as the molecule, how does the Dmax read?
A: 60 to 90%

Q: What about the DC50 of the same molecule?
A: 10 to 100 nM

Q: `CCOc1cc(-c2ccc(N3CCC(CN(C(=O)CCCCN4CCC(c5ccc6c(c5)C(=O)N(C5CCC(=O)NC5=O)C6)CC4)C(C)C)(NC(=O)c4cc(F)ccc4F)CC3)nc2)c2c(C#N)cnn2c1` (stereo not drawn) [Example 170, N-[1-(5-{3-cyano-6-ethoxypyrazolo[1,5-a]pyridin-4-yl}pyridin-2-yl)-4-[(5-{4-[2-(2,6-dioxopiperidin-3-yl)-3-oxo-2,3-dihydro-1H-isoindol-5-yl]piperidin-1-yl}-N-(propan-2-yl)pentanamido)methyl]piperidin-4-yl]-2,5-difluorobenzamide] was tested. Which Dmax did it give?
A: 60 to 90%

Q: What about the DC50 of the same molecule?
A: 100 to 2000 nM

Q: Which results are given for `CCOc1cc(-c2ccc(N3CCC(CN(C(=O)CCCCCCN4CCC(c5ccc6c(c5)C(=O)N(C5CCC(=O)NC5=O)C6)CC4)C(C)C)(NC(=O)c4cc(F)ccc4F)CC3)nc2)c2c(C#N)cnn2c1` (stereo not drawn) [Example 171, N-[1-(5-{3-cyano-6-ethoxypyrazolo[1,5-a]pyridin-4-yl}pyridin-2-yl)-4-[(7-{4-[2-(2,6-dioxopiperidin-3-yl)-3-oxo-2,3-dihydro-1H-isoindol-5-yl]piperidin-1-yl}-N-(propan-2-yl)heptanamido)methyl]piperidin-4-yl]-2,5-difluorobenzamide]?
A: Dmax: > 90%; DC50: 2 to 10 nM
